According to US20240180881A1, “METHODS FOR DECREASING RESISTANCE TO CHEMOTHERAPY” (National Institute of Immunology, priority 2022, published 2024):
Counter-ions that a name gives are not always drawn.

Legend:
[1] = molecular target: T1, BLM-RAD54 interaction (BLM F2 and N-RAD54 F1) (Homo sapiens, UniProt Q92698); assay: Renilla luciferase-based protein complementation assay (PCA); type: cell-based; settings: disruption of BLM F2 / N-RAD54 F1 interaction, HEK293T cells, 1 nM to 100 μM; read-out: EC50
T1 construct: expressed in transfected cells; host or cells: HEK293T
T1 sequence (Q92698 1-212): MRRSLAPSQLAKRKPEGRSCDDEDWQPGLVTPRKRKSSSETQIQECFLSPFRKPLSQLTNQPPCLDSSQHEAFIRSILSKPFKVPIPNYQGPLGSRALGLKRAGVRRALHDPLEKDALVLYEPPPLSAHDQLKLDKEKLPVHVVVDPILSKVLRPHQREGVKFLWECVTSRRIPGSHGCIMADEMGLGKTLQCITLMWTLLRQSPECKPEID
Protocol: Specifically, N-RAD54-F1, C-RAD54-F1, BLM-F1 and BLM-F2 were transfected in HEK293T. Forty-eight hours post-transfection, Renilla luciferase-based PCA were carried out with the indicated combination of the expressed proteins. The experiment was repeated three times. Mean±S.D.
Using the Renilla luciferase-based protein complementation assay described earlier, 1280 FDA/EMA approved small molecules present in Prestwick chemical library were screened for their ability to disrupt BLM-RAD54 interaction. Each of the small molecules was incubated with HEK293T cells expressing BLM-F2 and N-RAD54-F1. Compared to cells expressing only BLM-F2 and N-RAD54-F1, the decrease in Renilla luciferase intensity in presence of each small molecule was monitored. Percentage disruption of the interaction between BLM F2 and N-RAD54 F1 was plotted in form of heatmap. The disruption of the BLM-RAD54 interaction was determined by a decrease in the Renilla luciferase activity as compared to control untreated cells.
The percentage disruption of the interaction between BLM F2 and N-RAD54 F1 was plotted as a non-linear regression line. The data was from three independent experiments.
Renilla Luciferase (Rlu) based Protein complementation assay was carried out as described in (Stefan et al., 2007). For preliminary screening of the Prestwick Chemical Library (containing 1280 FDA/EMA approved small molecules), HEK293T cells were seeded in the 6-well plates a day prior to the transfection. Next day the cells were transfected by 2 μg each of pcDNA3.1 N-RAD54 F1, pcDNA3.1 C-RAD54 F1, pcDNA3.1 BLM F1, pcDNA3.1 BLM F2 plasmids (alone or in different combinations) using Lipofectamine 2000 (according to the manufacturer's protocol). 36 hours post-transfection, approximately […] cells were seeded in a 96-well plate and incubated at 37° C. for 2 hour with or without 10 μM of the 1280 small molecules present in the library. 10 μM of Coenleterazine h was added into each well and Rluc activity was monitored for the first 10 seconds in Varioskan Microplate Reader (Thermo Fisher Scientific). The validation screen was performed with 17 small molecules at 100 μM, 10 μM, 1 μM, 100 nM, 10 nM and 1 nM concentrations. The percentage reduction in the protein-protein interaction was then calculated as compared to the control wells (without any small molecule).

HCT116 WT cells = assay: MTT assay, chemotherapeutic drug gradient with or without disruptor; type: cell-based
Protocol: (§1) The three resistant lines and their wildtype counterpart HCT116 were exposed to a gradient of CPT, CDDP or 1-OHP.
(§2) Concentrations of CPT used: 0.140 nM, 20 nM, 50 nM, 1000 nM. Concentration of 1-OHP: 0.14 μM, 2 μM, 4 μM, 6 μM, 8 μM. Concentrations of CDDP used: 0.140 μM, 2 μM, 5 μM, 10 μM. The percentage of viable cells were determined by MTT assays (FIG. 12A-12C). The data in FIG. 12A and FIG. 12C is from three independent experiments and the data in FIG. 12B is from nine independent experiments. […] The levels of MRP2, MRP3, MRP5, MXR were quantitated from three independent experiments. […] Specifically, HCT116 IC60 CPTR cells were transfected with the HR substrate for 72 hours and the levels of HR was determined (FIG. 6A). The data is from three independent experiments. […] The number of soft agar colonies in each condition were counted. The data is from three independent experiments.
To generate camptothecin and cisplatin resistant cells (named as HCT116 IC60 CPT^R, HCT116 IC60 CDDP^R respectively), HCT116 wild type were seeded in a 10 cm dish to a confluency of 80%. The IC20 concentrations of cisplatin (3.38 μM) and camptothecin (12.6 nM) was added for 2 hours and 6 hours, respectively. Post treatment, the cells were washed twice with 1×PBS and fresh media was added. After every 48 hours, the media was changed and IC20 concentration of the drugs were added only if the confluency of cells was at least 80%. […] Resistant index was calculated using the following formula: Resistant index=IC60 of the resistant cells/IC60 of the parental cells.
Cells were seeded in a 96-well plate overnight. Next day, the culturing media was replaced with Optimem media, followed by incubation with BLM_CPP or SCM_CPP for 1 hr. The final concentrations of the peptides were 450 nM for cisplatin (CDDP) and 180 nM (for all other drugs). […] Post treatment, the cells were washed with 1×PBS and fresh media was added. After 72 hours, MTT assay was carried out to determine the percentage cell viability of the cells with respect to the untreated cells.

HCT116 IC60 CPTR cells = assay: MTT assay, CPT gradient with or without disruptor; type: cell-based; settings: Homo sapiens, HCT-116, CPT gradient alone, 72 hours, read-out: EC50 (μM), HCT116 WT CPT^R
Protocol: as §1, §2
To generate camptothecin and cisplatin resistant cells (named as HCT116 IC60 CPT^R, HCT116 IC60 CDDP^R respectively), HCT116 wild type were seeded in a 10 cm dish to a confluency of 80%. The IC20 concentrations of cisplatin (3.38 μM) and camptothecin (12.6 nM) was added for 2 hours and 6 hours, respectively. […] Resistant index was calculated using the following formula: Resistant index=IC60 of the resistant cells/IC60 of the parental cells. […]

[2] = molecular target: T2, RAD54 chromatin remodeling activity (Homo sapiens, UniProt Q92698); assay: Restriction enzyme accessibility (REA) assay on chromatinized G5E4 array; type: biochemical; settings: 180 nM peptide, +ATP
T2 construct: GST RAD54 (1-747) (WT), GST BLM (1-1417) (WT), His RAD54 (1-747) (WT); made in house; host or cells: E. coli BL-21 DE3
T2 sequence (Q92698 1-747): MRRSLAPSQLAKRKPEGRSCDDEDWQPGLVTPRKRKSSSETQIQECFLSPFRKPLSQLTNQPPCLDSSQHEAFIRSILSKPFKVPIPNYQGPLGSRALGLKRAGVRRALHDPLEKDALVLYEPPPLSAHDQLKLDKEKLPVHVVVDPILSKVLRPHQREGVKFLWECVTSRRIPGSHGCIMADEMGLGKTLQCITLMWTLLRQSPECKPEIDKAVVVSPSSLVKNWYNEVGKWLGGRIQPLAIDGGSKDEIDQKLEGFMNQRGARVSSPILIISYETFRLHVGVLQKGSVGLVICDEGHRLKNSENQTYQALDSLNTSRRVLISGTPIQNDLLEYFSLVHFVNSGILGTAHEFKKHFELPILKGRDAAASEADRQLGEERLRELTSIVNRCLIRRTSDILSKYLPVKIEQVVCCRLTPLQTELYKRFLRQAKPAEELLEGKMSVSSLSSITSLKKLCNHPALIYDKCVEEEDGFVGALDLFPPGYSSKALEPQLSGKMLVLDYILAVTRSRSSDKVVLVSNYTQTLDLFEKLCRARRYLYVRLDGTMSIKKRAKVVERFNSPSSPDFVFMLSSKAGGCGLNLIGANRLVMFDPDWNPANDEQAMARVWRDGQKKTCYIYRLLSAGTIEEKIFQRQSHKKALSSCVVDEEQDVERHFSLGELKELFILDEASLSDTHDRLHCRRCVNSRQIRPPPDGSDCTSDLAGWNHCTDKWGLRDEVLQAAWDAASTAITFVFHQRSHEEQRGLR
Source text: (§3) The data is from three independent experiments.
as §3

[3] = molecular target: T2, RAD54 chromatin remodeling activity; assay: REA assay on chromatinized MRP2 array; type: biochemical; settings: 180 nM peptide, +ATP
Source text: (§4) The data was from three independent experiments.
as §4, §3

RAD54 = molecular target: T3, RAD54 (Homo sapiens, UniProt Q92698); assay: ATP binding assay; type: biochemical; settings: 180 nM peptide
T3 construct: GST RAD54 (1-747) (WT); made in house; host or cells: E. coli BL-21 DE3
T3 sequence (Q92698 1-747): T2 sequence (Q92698 1-747)
Protocol: The quantitation of the ATP binding assay was carried out using RAD54 WT, RAD54 WT+BLM_peptide, and RAD54 WT+SCM_peptide. The data is from three independent experiments. Mean±S.D.
(§5) The presence of the disruptors also led to a decrease in the ATP binding to RAD54.
A 20 μl reaction was set up with 120 nM of GST-RAD54 and 180 nM of either BLM_peptide or SCM_peptide or BLM (1-212) using 4 μl of 5×ATP binding assay buffer (100 mM Tris-Cl pH 7.5, 50 mM MgCl2, 10 mM MnCl2, 5 mM DTT) and 5 μCi of [γ^32P]dATP. […] Reactions were incubated at 30° C. for 20 minutes and were stopped with 10% TCA and samples were spotted on P81 phosphocellulose paper followed by washing of paper strips with 75 mM orthophosphoric acid. A minimum of 8 washes were given in 20 hrs of 1 hr each including a 12 hr wash. Following this, strips were dehydrated in ethanol for 10 min followed by liquid scintillation counting. Reactions without the substrate were spotted as control and the same process repeated.

RAD54 ATPase activity = molecular target: T4, RAD54 ATPase activity (Homo sapiens, UniProt Q92698); assay: ATPase assay; type: biochemical; settings: peptide gradient 180 nM, 360 nM, 540 nM
T4 construct: made in house; host or cells: E. coli BL-21 DE3
T4 sequence (Q92698 1-747): T2 sequence (Q92698 1-747)
Protocol: The data is from three independent experiments. Mean±S.D.
as §5
Assay for RAD54 ATPase activity was carried out as per the previously published protocol (Srivastava et al., 2009). His-RAD54 (120 nM) was incubated with the GST-BLM (1-212) or BLM_peptide or SCM_peptide (180 nM). […] 1 μl of the sample was spotted on the polyethyleneimine-coated TLC plate, resolved in 1M Formic Acid and 0.3M LiCl. The products of ATP hydrolysis were then visualized by Phosphoimager scans taken in Typhoon™ laser-scanner platform (Cytiva) and quantitated using the inbuilt software.

His-RAD54 WT = molecular target: T5, His-RAD54 WT (Homo sapiens, UniProt Q92698); assay: Tryptophan fluorescence assay; type: binding; settings: increasing amount of peptide
T5 construct: made in house; host or cells: E. coli BL-21 DE3
T5 sequence (Q92698 1-747): T2 sequence (Q92698 1-747)
Protocol: To determine how BLM peptide affects ATP binding and hydrolysis, tryptophan fluorescence assays were carried out using full-length recombinant RAD54 in presence of either BLM_peptide or SCM_peptide (FIG. 2H). Tryptophan fluorescence assays were carried out with RAD54 WT alone or RAD54 WT in presence of the indicated concentrations of either BLM_peptide (upper panel) or SCM_peptide (lower panel). The experiment was repeated three times and one representative experiment has been shown.
RAD54 fluorescence was measured in a fluorometer.
Tryptophan fluorescence measurements were performed on a Fluoromax Spectrofluorimeter (Horiba-Jobin Yvon Fluoromax 4). Recombinant His-RAD54 (500 nM) was excited at 280 nm and the emission intensity monitored at regular intervals from 295 nm to at least 450 nm.

[4] = HCT116, used to generate resistant cells

Cc1cnc(C(=O)NCCc2ccc(S(=O)(=O)NC(=O)NC3CCCCC3)cc2)cn1 [C13, Glipizide]
EC50 [1]: 0.00675 ± 0.00369 µM

CN(C)C(=N)N=C(N)N [C4, Metformin hydrochloride]
EC50 [1]: 0.00301 ± 0.000812 µM

CC[C@@]1(O)C(=O)OCc2c1cc1n(c2=O)Cc2cc3ccccc3nc2-1 [CPT, camptothecin]
IC40 concentration (HCT116 WT cells; [4]): 0.0308 µM
IC60 concentration (HCT116 WT cells; [4]): 0.0926 µM
EC50 (HCT116 WT cells; Homo sapiens, HCT-116, CPT gradient alone, MTT, 72 hours, read-out: EC50 (μM), HCT116 WT): 0.043 ± 0.0037 µM
IC20 (HCT116 WT cells; Homo sapiens, HCT-116, HCT116 wild type, used to generate resistant cells, read-out: IC20 concentration): 0.0126 µM
EC50 (HCT116 IC60 CPTR cells): 0.354 ± 0.00561 µM

BLM_peptide: BLM (181-212) peptide, sequence STAQKSKKGKRNFFKAQLYTTNTVKTDLPPPS
chromatin remodeling activity of RAD54, fraction uncut [2]: enhance the chromatin remodeling activity of RAD54, to the same extent as BLM (1-212)
RAD54 mediated remodeling activity, fraction uncut [3]: enhanced RAD54 mediated remodeling activity on MRP2 substrate
binding of ATP to RAD54 (RAD54): enhanced the binding of ATP to RAD54
ATPase activity of RAD54 (RAD54 ATPase activity): increased the ATPase activity of RAD54
tryptophan fluorescence of RAD54 (His-RAD54 WT): progressively enhanced fluorescence quenching

COc1c2occc2c(OC)c2c(=O)cc(C)oc12 [C9, Khellin]
EC50 [1]: 0.0167 ± 0.00126 µM

NC(=O)NC1NC(=O)NC1=O (centres unmarked) [C2, Allantoin]
EC50 [1]: 0.0179 ± 0.00182 µM
